Percentage remaining data for two compounds are collected here from publication PMC11356571, “The Comparative Metabolism of a Novel Hepatocellular Carcinoma Therapeutic Agent, 2,3-Diamino-N-(4-(benzo[d]thiazol-2-yl)phenyl)propanamide, in Human and Animal Hepatocytes” (Metabolites, 2024).

Molecules are shown by their SMILES.

What all share (type): in vitro ADME
One data set has as its target T1, CYP2A6 (Homo sapiens, UniProt P11509).
T1 construct: purchased Corning Life Sciences (Woburn, MA, USA)
T1 sequence (P11509 1-494): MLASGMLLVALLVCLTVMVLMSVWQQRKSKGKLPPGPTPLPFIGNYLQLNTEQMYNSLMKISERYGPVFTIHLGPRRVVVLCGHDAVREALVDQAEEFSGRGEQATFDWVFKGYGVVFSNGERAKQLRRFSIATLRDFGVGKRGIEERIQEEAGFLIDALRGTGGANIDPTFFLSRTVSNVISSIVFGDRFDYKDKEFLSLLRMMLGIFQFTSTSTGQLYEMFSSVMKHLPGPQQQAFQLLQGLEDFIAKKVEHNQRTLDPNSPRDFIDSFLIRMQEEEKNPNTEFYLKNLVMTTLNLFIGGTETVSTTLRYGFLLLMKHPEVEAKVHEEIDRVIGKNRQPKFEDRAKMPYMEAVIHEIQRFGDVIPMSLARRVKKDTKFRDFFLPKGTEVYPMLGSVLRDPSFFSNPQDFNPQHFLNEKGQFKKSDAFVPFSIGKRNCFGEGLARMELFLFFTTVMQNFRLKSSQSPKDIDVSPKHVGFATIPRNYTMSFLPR
As to the kind of experiment: Incubation with human cDNA-expressed CYP2A6. The note with it: CYP2A6, 30 min at 37 °C with NADPH; ETN101 10 μM or M1 1 μM. Here is the method:
(§1) ETN101 or M1 was incubated with nine human cDNA-expressed CYP enzymes (1A2, 2A6, 2B6, 2C8, 2C9, 2C19, 2D6, 2E1, and 3A4) to identify the CYPs involved in the metabolism of ETN101. Based on the preliminary study, the incubation conditions were determined as follows: Briefly, reaction mixtures of 50 μL containing ETN101 (final concentration: 10 μM) or M1 (final concentration: 1 μM), and CYPs (final amount: 5 pmol for CYP1A2, 2A6, 2C8, 2C9, 2C19, 2D6, and 3A4; 10 pmol for CYP2B6 and 2E1) were prepared in 0.1 M potassium phosphate buffer. The reaction was initiated by adding 50 μL of NADPH- regenerating system; the mixtures were incubated for 0 min or 30 min at 37 °C in triplicate. Reactions were terminated by the addition of 100 μL of ice-cold acetonitrile containing the IS (camptothecin, 200 ng/mL). Samples were centrifuged at 13,000 rpm for 5 min at 4 °C. An aliquot of 2 μL supernatant was injected in LC–MS/MS system.
(§2) For enzyme characterization, an Agilent 6460 triple quadrupole mass spectrometer coupled with a 1260 HPLC system (Agilent Technologies, Santa Clara, CA, USA) and a Kinetex Halo® C18 column (2.7 μm, 2.1 × 50 mm, Advanced Material Technology, Wilmington, DE, USA) were used for chromatographic separation. […] ETN101, M1, and M2 were detected via MRM using ESI in the positive mode. […]

Another data set concerns the target T2, CYP2D6 (Homo sapiens, UniProt P10635).
T2 construct: purchased Corning Life Sciences (Woburn, MA, USA)
Nature of the data set: Incubation with human cDNA-expressed CYP2D6. The settings on record: CYP2D6, 30 min at 37 °C with NADPH; ETN101 10 μM or M1 1 μM. Here is the method: as §1, §2

A further data set deals with T3, CYP2C8 (Homo sapiens, UniProt P10632).
T3 construct: purchased Cypex Ltd. (Dundee, UK)
T3 sequence (P10632 1-490): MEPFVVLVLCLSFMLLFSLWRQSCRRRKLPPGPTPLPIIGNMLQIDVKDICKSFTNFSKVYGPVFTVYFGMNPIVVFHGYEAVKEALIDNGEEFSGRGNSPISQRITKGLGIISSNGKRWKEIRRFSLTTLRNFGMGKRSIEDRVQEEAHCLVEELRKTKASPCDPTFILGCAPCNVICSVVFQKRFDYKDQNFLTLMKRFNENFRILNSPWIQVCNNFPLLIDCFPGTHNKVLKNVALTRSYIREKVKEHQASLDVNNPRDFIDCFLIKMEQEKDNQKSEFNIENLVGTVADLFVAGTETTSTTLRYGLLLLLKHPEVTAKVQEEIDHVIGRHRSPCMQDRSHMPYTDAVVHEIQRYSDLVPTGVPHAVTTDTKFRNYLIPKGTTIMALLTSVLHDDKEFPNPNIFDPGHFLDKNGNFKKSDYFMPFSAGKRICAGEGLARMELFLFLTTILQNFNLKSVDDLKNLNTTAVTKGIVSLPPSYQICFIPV
As to the kind of experiment: Incubation with human cDNA-expressed CYP2C8. The note with it: CYP2C8, 30 min at 37 °C with NADPH; ETN101 10 μM or M1 1 μM. Here is the method:
as §1, §2

T2 sequence (P10635 whole entry): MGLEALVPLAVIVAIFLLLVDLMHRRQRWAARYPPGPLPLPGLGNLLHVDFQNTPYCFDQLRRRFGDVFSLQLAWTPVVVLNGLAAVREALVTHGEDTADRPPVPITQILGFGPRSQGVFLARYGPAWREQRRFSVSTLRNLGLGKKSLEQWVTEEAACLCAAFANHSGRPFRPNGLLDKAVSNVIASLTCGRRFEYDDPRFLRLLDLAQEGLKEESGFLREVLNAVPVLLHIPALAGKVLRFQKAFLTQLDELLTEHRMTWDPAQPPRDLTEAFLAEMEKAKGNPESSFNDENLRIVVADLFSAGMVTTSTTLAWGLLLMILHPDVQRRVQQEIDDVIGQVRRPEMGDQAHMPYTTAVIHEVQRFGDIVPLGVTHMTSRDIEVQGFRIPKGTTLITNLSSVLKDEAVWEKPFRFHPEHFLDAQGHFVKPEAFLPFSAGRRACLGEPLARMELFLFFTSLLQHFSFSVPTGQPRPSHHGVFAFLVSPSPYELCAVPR

On to `NCC(N)C(=O)Nc1ccc(-c2nc3ccccc3s2)cc1` (stereo not drawn) [ETN101, 2,3-diamino-N-(4-(benzo[d]thiazol-2-yl)phenyl)propanamide], for which the results for the Percentage remaining at CYP2A6, on CYP2D6 and at CYP2C8 were 115.6%, 86.9% and 105.0%, respectively.
As to `Nc1ccc(-c2nc3ccccc3s2)cc1` [M1, 2-(4-aminophenyl)benzothiazole], the Percentage remaining on CYP2A6 is given as 105.9%; at CYP2D6, 83.0%; on CYP2C8, 86.6%.
